Target: T1, glucagon receptor (Homo sapiens, UniProt P47871)
T1 construct: expressed in transfected cells; host or cells: Chinese Hamster Ovary cells (CHO-HGR), membranes
Assay: glucagon receptor binding assay (125I-glucagon, CHO-HGR membranes)
Settings: 20 μM; reported where 20 μM did not reduce glucagon binding by 50%
Procedure, shortened: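 Membranes from CHO cells expressing glucagon receptor (10 ug protein) in Tris pH 7.4 buffer with EDTA, BSA and bacitracin, incubated with test compound and 125I-glucagon (9 fmol) 60 min at room temperature. Bound radioactivity counted after filtration; nonspecific binding defined with 1 μM native glucagon; 0.5% DMSO.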

T1 sequence (P47871 26-477): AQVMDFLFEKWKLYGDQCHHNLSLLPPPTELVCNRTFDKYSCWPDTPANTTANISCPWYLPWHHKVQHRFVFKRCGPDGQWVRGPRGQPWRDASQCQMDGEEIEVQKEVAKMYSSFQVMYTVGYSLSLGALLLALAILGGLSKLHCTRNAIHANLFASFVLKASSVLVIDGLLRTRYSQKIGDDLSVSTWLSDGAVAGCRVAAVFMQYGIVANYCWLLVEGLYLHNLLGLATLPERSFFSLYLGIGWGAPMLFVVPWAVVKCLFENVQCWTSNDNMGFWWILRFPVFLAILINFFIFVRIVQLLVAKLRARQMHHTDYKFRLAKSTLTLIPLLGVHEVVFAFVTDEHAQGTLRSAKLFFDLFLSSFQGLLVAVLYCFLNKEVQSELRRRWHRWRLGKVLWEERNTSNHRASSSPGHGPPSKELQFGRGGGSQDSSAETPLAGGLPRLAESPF

**Q.** Which inhibition at 20 µM does the source give for `CCCC=Cc1c(C(C)C)nc(C(C)C)c(CO)c1-c1cccc(OCc2ccccc2)c1` [Example 152, 2,6-Diisopropyl-3-hydroxymethyl-4-(3-benzyloxyphenyl)-5-(pent-1-enyl)pyridine] here?
**A.** The inhibition at 20 µM was 25.4%.

**Q.** `CCCCCc1c(CN2CCOCC2)nc(C(C)C)c(CO)c1-c1ccc(F)cc1` [Example 199, 2-Morpholinomethyl-3-pentyl-4-(4-fluorophenyl)-5-hydroxymethyl-6-isopropylpyridine] was tested. Which inhibition at 20 µM did it give?
**A.** Its inhibition at 20 µM is 8.67%.

**Q.** Which inhibition at 20 µM does the source give for `CCCC=Cc1c(C(C)C)nc(C(C)C)c(CO)c1-c1ccc(-c2ccccc2)cc1` [Example 135, 2,6-Diisopropyl-3-hydroxymethyl-4-[4-(phenyl)phenyl]-5-(pent-1-enyl)pyridine] here?
**A.** The inhibition at 20 µM was 4.64%.

**Q.** `CCc1nc(CC)c(CO)c(-c2ccccc2)c1C=C(C)C` [Example 5] was tested. Which inhibition at 20 µM did it give?
**A.** The inhibition at 20 µM was 12.4%.

**Q.** Which inhibition at 20 µM does the source give for `CCCC=Cc1c(C(C)C)nc(C(C)C)c(CO)c1-c1ccc(C(C)C)cc1` [Example 133, 2,6-Diisopropyl-3-hydroxymethyl-4-(4-isopropylphenyl)-5-(pent-1-enyl)pyridine] here?
**A.** The inhibition at 20 µM was 35.5%.

**Q.** How did the inhibition at 20 µM turn out when `CCCCCc1c(C(C)C)nc(C(C)C)c(CO)c1-c1ccc(Cl)cc1Cl` [Example 148, 2,6-Diisopropyl-3-hydroxymethyl-4-(2,4-dichlorophenyl)-5-pentylpyridine] was run?
**A.** The inhibition at 20 µM was 7.78%.

**Q.** Which inhibition at 20 µM does the source give for `CC(C)=Cc1c(C)nc(C)c(CO)c1-c1ccccc1` [Example 2] here?
**A.** Its inhibition at 20 µM is 2.73%.

**Q.** `CC(C)c1nc(C(C)C)c(CCCN(C)C)c(-c2ccc(F)cc2)c1CO` [Example 89, 2,6-Diisopropyl-3-hydroxymethyl-4-(4fluorophenyl)-5-[(3-dimethyl-amino)propyl]pyridine] was tested. Which inhibition at 20 µM did it give?
**A.** Its inhibition at 20 µM is 36%.

**Q.** How did the inhibition at 20 µM turn out when `CCCC=Cc1c(C(C)C)nc(C(C)C)c(CO)c1-c1ccc([S+](C)[O-])cc1` (stereo not drawn) [Example 175, 2,6-Diisopropyl-3-hydroxymethyl-4-[4-(methylsulfinyl)phenyl]-5-(pent-1-enyl)pyridine] was run?
**A.** Its inhibition at 20 µM is 40.9%.

**Q.** Which inhibition at 20 µM does the source give for `CCCC=Cc1c(C(C)C)nc(C(C)C)c(CO)c1-c1cccc(OC)c1` [Example 170, 2,6-Diisopropyl-3-hydroxymethyl-4-(3-methoxyphenyl)-5-(pent-1-enyl)pyridine] here?
**A.** Its inhibition at 20 µM is 45.5%.

**Q.** For `CCCCC(O)c1c(C(C)C)nc(C(C)C)c(CO)c1-c1ccc(F)cc1` (racemic) [Example 95, (±)-2,6-Diisopropyl-3-hydroxymethyl-4-(4-fluorophenyl)-5-(1-hydroxy-pentyl)pyridine], which inhibition at 20 µM is on record?
**A.** Its inhibition at 20 µM is 26.5%.

**Q.** `CCCCCc1c(C(C)C)nc(C(C)C)c(CO)c1-c1ccc(O)cc1` [Example 161, 2,6-Diisopropyl-3-hydroxymethyl-4-(4-hydroxyphenyl)-5-pentylpyridine] was tested. Which inhibition at 20 µM did it give?
**A.** The inhibition at 20 µM was 24%.

**Q.** `C#Cc1ccccc1-c1c(C=CCCC)c(C(C)C)nc(C(C)C)c1CO` [Example 156, 2,6-Diisopropyl-3-hydroxymethyl-4-(2-ethynylphenyl)-5-(pent-1-enyl)-pyridine] was tested. Which inhibition at 20 µM did it give?
**A.** Its inhibition at 20 µM is 26.1%.

**Q.** Which inhibition at 20 µM does the source give for `CCCC=Cc1c(C(C)C)nc(C(C)C)c(CO)c1-c1ccccc1C` [Example 141, 2,6-Diisopropyl-3-hydroxymethyl-4-(2-methylphenyl)-5-(pent-1-enyl)-pyridine] here?
**A.** The inhibition at 20 µM was 34%.

**Q.** With `C=CC(O)c1nc(C(C)C)c(CO)c(-c2ccc(F)cc2)c1CCCCC` (stereo not drawn) [Example 206, 2-(1-Hydroxyprop-2-enyl)-3-pentyl-4-(4-fluorophenyl)-5-hydroxymethyl-6-isopropylpyridine] as the molecule, how does the inhibition at 20 µM read?
**A.** The inhibition at 20 µM was 44.6%.

Same assay, conditions: 125I-glucagon; 60 min at room temperature; read-out: IC50

**Q.** With `CCCc1c(C(C)C)cc(C(C)C)c(CO)c1-c1ccc(F)cc1O` (racemic) [Example 241, 3,5-Diisopropyl-2-hydroxymethyl-6-propyl-4'-fluoro-2'-hydroxy-1,1'-biphenyl] as the molecule, how does the IC50 read?
**A.** The IC50 was 110 nM.

**Q.** For `CCCCCc1c(C(C)C)nc(C(C)C)c(C(C)O)c1-c1ccccc1O` (single isomer, unassigned) [Example 164-D1, 2,6-Diisopropyl-3-(1-hydroxyethyl)-4-(2-hydroxyphenyl)-5-pentylpyridine], which IC50 is on record?
**A.** Its IC50 is 45 nM.

**Q.** Which IC50 does the source give for `Cc1cccc(CCc2c(C(C)C)nc(C(C)C)c(CO)c2-c2ccc(F)cc2)c1` [Example 44, 2,6-Diisopropyl-3-hydroxymethyl-4-(4-fluorophenyl)-5-[2-(3-methyl-phenyl)ethyl]pyridine] here?
**A.** Its IC50 is 1000 nM.

**Q.** For `CC(C)=Cc1c(C(C)C)nc(C(C)C)c(CO)c1-c1ccccc1` [Example 11], which IC50 is on record?
**A.** The IC50 was 8000 nM.

**Q.** Which IC50 does the source give for `CCCCCc1c(C(C)C)cc(C(C)C)c(CO)c1-c1ccc(F)cc1` [Example 190, 3,5-Diisopropyl-2-hydroxymethyl-6-pentyl-4'-fluoro-1,1'-biphenyl] here?
**A.** Its IC50 is 300 nM.

**Q.** For `CC(C)c1nc(C(C)C)c(CSCc2ccccc2)c(-c2ccc(F)cc2)c1CO` [Example 64], which IC50 is on record?
**A.** Its IC50 is 1100 nM.

**Q.** With `CCCCCc1c(C(C)C)nc(C(C)C)c(CO)c1-c1cccnc1` [Example 186, 2,6-Diisopropyl-3-hydroxymethyl-4-(pyridin-3-yl)-5-pentylpyridine] as the molecule, how does the IC50 read?
**A.** Its IC50 is 20000 nM.

**Q.** Which IC50 does the source give for `CCCCCc1c(C(C)O)nc(C(C)C)c(CO)c1-c1ccc(F)cc1` (stereo not drawn) [Example 210, 2-(1-Hydroxyethyl)-3-pentyl-4-(4-fluorophenyl)-5-hydroxymethyl-6-isopropylpyridine] here?
**A.** Its IC50 is 18000 nM.

**Q.** For `Cc1ccccc1CCCc1c(C(C)C)nc(C(C)C)c(CO)c1-c1ccc(F)cc1` [Example 84, 2,6-Diisopropyl-3-hydroxymethyl-4-(4-fluorophenyl)-5-[3-(2-methylphenyl)propyl]pyridine], which IC50 is on record?
**A.** The IC50 was 1900 nM.

**Q.** `CCCC=Cc1c(C(C)C)nc(C(C)C)c(CO)c1-c1ccc(F)c(F)c1` [Example 158, 2,6-diisopropyl-3-hydroxymethyl-4-(3,4-difluorophenyl)-5-(pent-1-enyl)pyridine] was tested. Which IC50 did it give?
**A.** Its IC50 is 1800 nM.

**Q.** How did the IC50 turn out when `Cc1ccccc1CCc1c(C(C)C)nc(C(C)C)c(CO)c1-c1ccc(F)cc1` [Example 43, 2,6-Diisopropyl-3-hydroxymethyl-4-(4-fluorophenyl)-5-[2-(2-methyl-phenyl)ethyl]pyridine] was run?
**A.** The IC50 was 1800 nM.

**Q.** Which IC50 does the source give for `CCCCCc1c(C(C)C)nc(C(C)C)c(CO)c1-c1cccc(F)c1` [Example 128, 2,6-Diisopropyl-3-hydroxymethyl-4-(3-fluorophenyl)-5-pentylpyridine] here?
**A.** Its IC50 is 3000 nM.

**Q.** Which IC50 does the source give for `Cc1ccccc1/C=C/c1c(C(C)C)nc(C(C)C)c(CO)c1-c1ccc(F)cc1` [Example 40, 2,6-Diisopropyl-3-hydroxymethyl-4-(4-fluorophenyl)-5-[2(E)-(2-methyl-phenyl)ethenyl]pyridine] here?
**A.** The IC50 was 750 nM.

**Q.** For `CC(C)c1nc(C(C)C)c(CC=Cc2ccccc2)c(-c2ccc(F)cc2)c1CO` [Example 82, 2,6-Diisopropyl-3-hydroxymethyl-4-(4-fluorophenyl)-5-(3-phenyl-2-propenyl)pyridine], which IC50 is on record?
**A.** Its IC50 is 1900 nM.

**Q.** For `CCCC=Cc1c(C(C)C)nc(C(C)C)c(CO)c1-c1ccc(C)cc1` [Example 129, 2,6-Diisopropyl-3-hydroxymethyl-4-(4-methylphenyl)-5-(Pent-1-enyl)-pyridine], which IC50 is on record?
**A.** Its IC50 is 1500 nM.

**Q.** With `CCCCCc1c(C(C)C)cc(C(C)C)c(C(C)O)c1-c1ccc(F)cc1` (single isomer, unassigned; (+)) [Example 243, (+)-3,5-Diisopropyl-2-(1-hydroxyethyl)-6-pentyl-4'-fluoro-1,1'-biphenyl] as the molecule, how does the IC50 read?
**A.** Its IC50 is 86 nM.

**Q.** For `CCCC=Cc1c(C(C)C)nc(C(C)C)c(CO)c1-c1ccoc1` [Example 187, 2,6-Diisopropyl-3-hydroxymethyl-4-(3-furyl)-5-(pent-1-enyl)pyridine], which IC50 is on record?
**A.** The IC50 was 12000 nM.

**Q.** For `CCCCCc1c(C(C)C)nc(C(C)C)c(CO)c1-c1ccc(F)c(F)c1` [Example 159, 2,6-Diisopropyl-3-hydroxymethyl-4-(3,4-difluorophenyl)-5-pentyl-pyridine], which IC50 is on record?
**A.** The IC50 was 1100 nM.

**Q.** For `Cc1ccccc1SCc1c(C(C)C)nc(C(C)C)c(CO)c1-c1ccc(F)cc1` [Example 58, 2,6Diisopropyl-3-hydroxymethyl-4-(4-fluorophenyl)-5-[(2-methyl-phenyl)thio]methylpyridine], which IC50 is on record?
**A.** Its IC50 is 1500 nM.

**Q.** Which IC50 does the source give for `Cc1ccc(CCc2c(C(C)C)nc(C(C)C)c(CO)c2-c2ccc(F)cc2)cc1` [Example 45, 2,6-Diisopropyl-3-hydroxyl methyl-4-(4-fluorophenyl)-5-[2-(4-methyl-phenyl)ethyl]pyridine] here?
**A.** The IC50 was 1100 nM.

**Q.** For `CC=Cc1c(C(C)C)nc(C(C)C)c(CO)c1-c1ccccc1` [Example 12], which IC50 is on record?
**A.** Its IC50 is 1700 nM.

**Q.** How did the IC50 turn out when `CC(C)c1nc2c(c(-c3ccc(F)cc3)c1C(C)O)CCC2(C)C` (stereo not drawn) [Example 235, 2-Isopropyl-3-(1-hydroxyethyl)-4-(4-fluorophenyl)-7,7-dimethyl-5H-cyclopenta[b]pyridine] was run?
**A.** Its IC50 is 3100 nM.

**Q.** Which IC50 does the source give for `CC(C)c1nc(C(C)C)c(CCCCc2ccccc2)c(-c2ccc(F)cc2)c1CO` [Example 39] here?
**A.** Its IC50 is 1300 nM.

**Q.** For `CC(C)C=Cc1c(C(C)C)nc(C(C)C)c(CO)c1-c1ccc(F)cc1` [Example 27, 2,6-Diisopropyl-3-hydroxymethyl-4-(4-fluorophenyl)-5-(3-methyl-1-butenyl)pyridine], which IC50 is on record?
**A.** The IC50 was 20000 nM.

**Q.** `CC(C)c1nc(C(C)C)c(CN2CCCCC2)c(-c2ccc(F)cc2)c1CO` [Example 70, 2,6-Diisopropyl-3-hydroxymethyl-4-(4-fluorophenyl)-5-(piperidinomethyl)pyridine] was tested. Which IC50 did it give?
**A.** The IC50 was 12000 nM.

**Q.** Which IC50 does the source give for `CCC=Cc1c(C(C)C)nc(C(C)C)c(CO)c1-c1ccc(F)cc1` [Example 20, 2,6-Diisopropyl-3-hydroxymethyl-4-(4-fluorophenyl)-5-(l-butenyl)-pyridine] here?
**A.** The IC50 was 1300 nM.

**Q.** How did the IC50 turn out when `CCCC=Cc1c(C(C)C)cc(C(C)C)c(CO)c1-c1ccc(F)cc1` [Example 194, 3,5-Diisopropyl-2-hydroxymethyl-6-(pent-1-enyl)-4'-fluoro-1,1'-biphenyl] was run?
**A.** Its IC50 is 1000 nM.

**Q.** `CC(C)c1nc(C(C)C)c(CSc2ccccc2)c(-c2ccc(F)cc2)c1CO` [Example 47, 2,6Diisopropyl-3-hydroxymethyl-4-(4fluorophenyl)-5[(phenylthio)-methyl]pyridine] was tested. Which IC50 did it give?
**A.** The IC50 was 1500 nM.

**Q.** With `CC(C)c1cc(C(C)C)c(CSc2c(F)c(F)cc(F)c2F)c(-c2ccc(F)cc2)c1CO` [Example 288] as the molecule, how does the IC50 read?
**A.** The IC50 was 2000 nM.

Same assay, conditions: IC50, 125I-glucagon; 60 min at room temperature

**Q.** With `CCCCCc1c(C)nc(C(C)C)c(CO)c1-c1ccc(F)cc1` [Example 197, 2-Isopropyl-3-hydroxymethyl-4-(4-fluorophenyl)-5-pentyl-6-methyl-pyridine] as the molecule, how does the IC50 read?
**A.** Its IC50 is 7000 nM.

From patent US6218431A, “Substituted biphenyls” (Bayer Corporation, priority 1997, dated 2001)
